# Source: US12606520B2, “Calpain-2 inhibitor compounds and methods of treatment” (WESTERN UNIVERSITY OF HEALTH SCIENCES, priority 2020, dated 2026)
# How the values were obtained:
# calpain-1 [1] = biological target: T1, calpain-1 (Mus musculus, UniProt O35350); assay: Calpain-1 activity in WT mouse cerebellar homogenate (20 μM Ca2+), Suc-Leu-Tyr-AMC cleavage; type: biochemical; parameters: from tissue; host or cells: wild-type mouse cerebellar (P2) homogenate; details: 20 μM calcium, read-out: IC50, 20 μM Ca^2+ (Calpain-1)
# T1 sequence (O35350 1-713): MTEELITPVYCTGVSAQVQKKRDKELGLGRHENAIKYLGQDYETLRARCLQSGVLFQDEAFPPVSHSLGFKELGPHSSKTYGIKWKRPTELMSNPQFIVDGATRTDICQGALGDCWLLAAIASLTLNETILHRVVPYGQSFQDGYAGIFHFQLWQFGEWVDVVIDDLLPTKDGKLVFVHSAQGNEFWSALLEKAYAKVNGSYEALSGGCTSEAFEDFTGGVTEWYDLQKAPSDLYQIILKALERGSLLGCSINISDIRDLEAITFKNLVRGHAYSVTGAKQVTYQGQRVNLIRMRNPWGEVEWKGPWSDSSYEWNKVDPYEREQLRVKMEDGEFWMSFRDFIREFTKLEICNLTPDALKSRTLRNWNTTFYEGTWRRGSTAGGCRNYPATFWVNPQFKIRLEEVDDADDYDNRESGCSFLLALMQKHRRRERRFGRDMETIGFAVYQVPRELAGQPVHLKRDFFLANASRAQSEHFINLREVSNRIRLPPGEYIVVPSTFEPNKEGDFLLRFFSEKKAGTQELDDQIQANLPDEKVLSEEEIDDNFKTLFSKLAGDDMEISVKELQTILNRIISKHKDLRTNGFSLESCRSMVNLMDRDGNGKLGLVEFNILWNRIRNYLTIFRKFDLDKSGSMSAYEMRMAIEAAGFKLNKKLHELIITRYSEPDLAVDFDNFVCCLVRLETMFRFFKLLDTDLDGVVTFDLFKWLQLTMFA
# T1 sequence (O88456 1-268 partner): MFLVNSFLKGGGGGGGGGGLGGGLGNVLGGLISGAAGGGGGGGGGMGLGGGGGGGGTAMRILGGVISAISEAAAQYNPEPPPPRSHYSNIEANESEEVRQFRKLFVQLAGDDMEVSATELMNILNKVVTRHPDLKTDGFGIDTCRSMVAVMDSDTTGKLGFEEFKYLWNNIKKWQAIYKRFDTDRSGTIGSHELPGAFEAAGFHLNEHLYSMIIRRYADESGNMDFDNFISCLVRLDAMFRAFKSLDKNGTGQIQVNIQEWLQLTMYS
# Method: Cerebellar homogenates from wild-type (WT) or calpain-1 Knock-out (KO) mice were incubated with 20 μM calcium to activate calpain-1 or with 2 mM calcium to activate calpain-2, respectively, and increasing concentrations of NA112 (12). Calpain activity was measured by the cleavage of Succinyl-Leu-Tyr-7-amino-4-methylcoumarin (Suc-Leu-Tyr-AMC), resulting in increased fluorescence. Activity is normalized to the value measured in the presence of vehicle (DMSO).
# WT or calpain-1 KO mouse cerebellar P2 homogenate (crude synaptosomal fraction) were used for measuring inhibitory activity of compounds against the mouse endogenous calpain-1/-2. Each reaction contains 100 ul of WT or calpain-1 KO mouse cerebellar P2 homogenate+0, 20 or 2000 uM Ca^2++0-10,000 nM NA184.
# Calpain-1 activity=calpain activity under 20 uM Ca^2+ in WT mice
# calpain-1 [2] = biological target: T1, calpain-1; assay: Calpain-1 activity in brain after TBI in mice; type: in vivo; parameters: from tissue; host or cells: mouse brain after TBI; details: 1 mg/kg i.p., 24 h after TBI
# Method: We also performed the same model of TBI in male and female mice and in male and female rats. In all cases, NA184 was injected i.p. at 1 mg/kg. For the rat experiments, NA184 was injected twice at 1 h and 8 h after TBI. Animals were sacrificed 24 h after TBI and calpain activity was assayed in brain and cell death was analyzed in cortex. […] In addition, there was a highly significant correlation between calpain-2 activity and cell death in rats (FIG. 23). R^2 was 0.61 and p<0.005.
SMILES,IC50 (calpain-1 [1]),"Calpain-1 inhibition in brain, male and female mice (calpain-1 [2])"
"CCC(NC(=O)[C@H](CC(C)C)NC(=O)NCc1ccccc1)C(=O)C(=O)NCc1cc(OC)cc(OC)c1 (mixture of isomers) [NA112, (2S)-2-(3-benzylureido)-N-(1-((3,5-dimethoxybenzyl)amino)-1,2-dioxopentan-3-yl)-4-methylpentanamide]",1380 nM,
"CCC(NC(=O)[C@H](CC(C)C)NC(=O)NCc1ccccc1)C(=O)C(=O)NCc1cccc(Cl)c1OC (stereo partly drawn) [NA184, (2S)-2-(3-benzylureido)-N-(1-((3-chloro-2-methoxybenzyl)amino)-1,2-dioxopentan-3-yl)-4-methylpentanamide]",,not calpain-1
